Where no end group is shown, it is not given here.
Key:
NHEKs [1] = test: U1 RNA binding to the cell at 4 °C (immunocytofluorescence); format: cell-based, human; conditions: 1 hour, peptide 2.5 μM
Description: (§1) Figure 2 Structure and cell binding of cathelicidin and dsRNA. (a) Structures of LL37, LL34, and LL34(I20P) bound to dsRNA were solved using SAXS. SAXS data is plotted as the scattering intensity I(q) vs. the momentum transfer vector q. LL34 (blue) and LL34(I20P) (green) condense dsRNA into square lattices with first peak positions of q10 = 0.167 Å^−1 and 0.170 Å^−1, respectively. Higher order Bragg reflections due to scattering of the square lattice of LL34 and LL34(I20P) are labeled for both complexes. In comparison, LL37 (magenta) condenses dsRNA into a columnar lattice with short-ranged order, with a first peak position of q1 = 0.172 Å^−1. (b) Linear fits of Bragg peak positions indicate that LL34-dsRNA (blue) and LL34(I20P)-dsRNA (green) complexes have inter-dsRNA spacings of 3.76 nm and 3.70 nm, respectively. Each reflection corresponding to the peaks in a for LL34 and LL34(I20P) are labeled. Close overlap of the two linear fits indicate that LL34-dsRNA and LL34(I20P)-dsRNA complexes have similar unit cell structures and inter-dsRNA spacings. End-on views along the dsRNA long-axis of the columnar (c) LL37-dsRNA and (d) LL34-dsRNA or LL34(I20P)-dsRNA complexes are shown. In (d), LL34-dsRNA and LL34(I20P)-dsRNA both form square columnar structures with similar unit cell architectures. […]

NHEKs [2] = test: U1 RNA co-association with early endosome (EEA1) in NHEKs; format: cell-based, human; conditions: 37 °C, 4 hours
Description: as §1

SR-B1 = biological target: T1, SR-B1 (Homo sapiens, UniProt Q8WTV0); test: Proximity ligation assay for SR-B1 and U1 RNA; format: cell-based; conditions: NHEKs, peptide 2.5 μM 10 minutes, biotinylated U1 RNA 2.5 μg/mL, 4 °C, 1 hour
T1 construct: endogenous in cells; host or cells: NHEK (primary neonatal human epidermal keratinocytes)
T1 sequence (Q8WTV0 1-509 isoform Q8WTV0-2): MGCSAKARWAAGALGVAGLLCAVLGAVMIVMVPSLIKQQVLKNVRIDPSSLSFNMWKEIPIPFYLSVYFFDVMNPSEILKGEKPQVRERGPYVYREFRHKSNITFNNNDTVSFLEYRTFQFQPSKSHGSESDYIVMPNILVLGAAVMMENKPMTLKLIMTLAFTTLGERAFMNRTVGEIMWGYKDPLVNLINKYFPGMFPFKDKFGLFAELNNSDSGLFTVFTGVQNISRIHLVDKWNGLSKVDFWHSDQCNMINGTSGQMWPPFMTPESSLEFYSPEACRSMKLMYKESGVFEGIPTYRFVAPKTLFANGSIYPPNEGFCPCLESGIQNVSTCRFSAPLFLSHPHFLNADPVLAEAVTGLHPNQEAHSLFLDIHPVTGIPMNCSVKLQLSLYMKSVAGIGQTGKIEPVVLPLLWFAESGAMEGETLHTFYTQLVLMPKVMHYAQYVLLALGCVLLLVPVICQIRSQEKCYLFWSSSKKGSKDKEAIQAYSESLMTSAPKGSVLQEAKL
Description: Figure 3 Cathelicidin enables dsRNA to associate with scavenger receptors. (a) Proximity ligation assay for SR-B1 and U1 RNA. NHEKs were cultured with various cathelicidin peptides (2.5 μM) for 10 minutes, then with biotinylated U1 RNA (2.5 μg/mL) at 4 °C for 1 hour before physical proximity of SR-B1 and U1 RNA was determined using a fluorescence-based PLA that produces a red fluorescent signal. Nuclei (blue) are counterstained with DAPI. Scale bar represents 10 μm. (b) Signal count of (a) in 5 visual fields. (c) Proximity ligation assay as in (a) but reaction is detecting proximity of LL37 and SR-A6. Scale bar represents 100 μm. (d) Signal count of proximity ligation assay performed as in (a), but between U1 RNA and the indicated scavenger receptors, each count is PLA complexes observed in 5 visual fields. (e) Skin sections from healthy subject (control), or lesional skin from a psoriasis patient (Psoriasis) were fixed and PLA performed for LL37 and SR-B1. […]
NHEKs seeded into 8 chamber slides (Thermo Fisher Scientific) were incubated with various combination of U1 RNA, poly(I:C), cathelicidin peptides, and fucoidan for 1 hour at 4 °C allowing binding, but not internalization. […] Fluorescent PLA signals were evaluated using fluorescence microscopy (described above). Signals are counted by Duolink ImageTool software version 1.0.1.2 (Sigma-aldrich).

Row | close association between U1 RNA and SR-B1 (PLA, <40 nm) (SR-B1) | Substance | capacity to enable U1 RNA to bind to the cell (NHEKs [1]) | co-association of U1 RNA with the early endosome (NHEKs [2])
1 | enabled close association | LL37 | showed the capacity to enable U1 RNA to bind to the cell | induced partial co-association with the early endosome
2 | enabled close association | LLGDFFRKSKEKIGKEFKRIVQRIKDFLRNLVPR [LL34] | showed the capacity to enable U1 RNA to bind to the cell | induced partial co-association with the early endosome
